Experimental data: PMC4917206, “Chemical Modification of Influenza CD8+ T-Cell Epitopes Enhances Their Immunogenicity Regardless of Immunodominance” (PLoS ONE, 2016)
Entries after “also recorded” stand apart in the source; their conditions may differ.

Tests used:
[1] = system: […]-specific T cell clone; assay type: cell-based
[2] = system: CD8+ T cells of HLA-A2+ human donors; assay type: cell-based; parameters: key to response compared with WT peptide control, DC model: *: Lower response than WT peptide
[3] = system: splenocytes of WT-vaccinated HLA-A2 tg mice; assay type: cell-based, mouse; parameters: key to response compared with WT peptide control, mouse splenocytes: *: Lower response than WT peptide
[4] = target: T1, HLA-A*0201 (Homo sapiens, UniProt P04439, D140Y/D185E/D98H/E176V/E277Q/G131W/G231S/I119V/I121R/I166T/I218V/L300P/L318F/N151K/N90K/P208A/P217A/Q86G/Q94H/R138H/R169H/T345S); assay type: binding
T1 construct: Soluble MHC was dissolved in PBS containing 0.5 mg/ml bovine γ-globulin; made in house

[5] = system: HLA-A2 transgenic mice; conditions: mouse, in vivo; for IFN-γ ELISpot response after restimulation with WT peptide / IFN-γ ELISpot response after restimulation with homologous peptide: sc

Row | Substance | T cell clone: percentage of IFN-γ producing T cells, Average [1] [%] | DC model: IFN-γ-positive CD8+ T cells, Average [2] | Mouse splenocytes (ex vivo assay), Average [3] | rank by T cell activation, DC model [2] | response compared with WT peptide control, DC model [2] | rank by T cell activation, T cell clone [1] | rank by T cell activation, mouse splenocytes [3] | FP binding score, percentage inhibition of tracer peptide binding, 4h [4] [%] | FP binding score, percentage inhibition of tracer peptide binding, 24h [4] [%] | binding score [4] [%] | T cell (IFN-γ) response of vaccinated HLA-A2 tg mice, restimulation not specified or both [5] | IFN-γ ELISpot response after restimulation with WT peptide [5] | IFN-γ ELISpot response after restimulation with homologous peptide [5] | response compared with WT peptide control, mouse splenocytes [3] | number of mice responding to WT peptide restimulation [5] | number of mice responding to homologous peptide restimulation [5]
1 | [4-pyra]ILGFVFTL [G10] | 45.4 | 0.14 | 47 | – | – | – | – | – | – | – | – | – | – | – | – | –
2 | [4-PYRA]ILGFVFTL [G15] | 33.4 | 0.17 | 53 | Upper 3 | G15 ^* | – | – | – | – | – | – | – | – | – | – | –
3 | yILGFVFTL [G9] | 1.1 | 0.11 | 20 | – | – | Lower 3 | Lower 3 | – | – | – | – | – | – | – | – | –
4 | [am-phg]MYSDFHFI [F111] | – | 0.08 | 86 | – | – | – | – | 75 | 72 | 72 | improved T cell responses; also recorded: improved immunogenicity; also recorded: higher homologous and heterologous responses | higher responses compared to WT-peptide vaccination; also recorded: higher IFN-γ responses than WT peptide-vaccinated mice | – | – | – | –
5 | G[2-AOC]LGFVFT[PRG] [G26] | – | 0.45 | 61 | Upper 3 | – | – | – | 60 | 54 | – | – | do not always react to restimulation with WT peptide | – | – | – | –
6 | [SOME][2-AOC]LSTVLGV [N92] | – | 0.04 | 380 | – | – | – | Upper 3 | 84 | 81 | – | – | did not respond to restimulation | did not respond to restimulation | N92 ^* | – | –
7 | [am-phg]MLSTVLGV [N46] | – | 0.02 | 363 | Lower 3 | – | – | – | 80 | 76 | 81 | – | reduced to zero; also recorded: do not always react to restimulation with WT peptide | increased the responses compared to vaccination with WT peptide | – | no responders | four
